IC50 data for 8 compounds are collected here from BindingDB's records for doi:10.1016/j.chembiol.2016.11.007 (University of Connecticut, 2016).

Test in all cases: DHFR Inhibition Assay
In test [1] the target is Dihydrofolate reductase type 1 from Tn4003 (Staphylococcus aureus, UniProt P13955).
The target of test [2] is Dihydrofolate reductase (Staphylococcus aureus, UniProt P0A017).
Test [3] deals with T1, Dihydrofolate reductase (Staphylococcus aureus, UniProt C7C2U7).
T1 sequence (C7C2U7 whole entry): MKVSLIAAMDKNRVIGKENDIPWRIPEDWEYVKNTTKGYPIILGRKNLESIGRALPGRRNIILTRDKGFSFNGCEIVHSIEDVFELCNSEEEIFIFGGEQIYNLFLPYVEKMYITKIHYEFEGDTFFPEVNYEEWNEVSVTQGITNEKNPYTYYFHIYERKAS

Test [4] deals with T2, Dihydrofolate reductase (Staphylococcus aureus, UniProt Q4H3Y3).
T2 sequence (Q4H3Y3 whole entry): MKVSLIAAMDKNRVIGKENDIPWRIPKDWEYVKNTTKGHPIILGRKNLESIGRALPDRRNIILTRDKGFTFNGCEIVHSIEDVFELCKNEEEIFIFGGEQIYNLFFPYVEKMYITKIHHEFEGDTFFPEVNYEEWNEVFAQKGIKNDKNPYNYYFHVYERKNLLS

Each structure is given as a SMILES string.

Chain of Dihydrofolate reductase type 1 from Tn4003 (P13955 whole entry): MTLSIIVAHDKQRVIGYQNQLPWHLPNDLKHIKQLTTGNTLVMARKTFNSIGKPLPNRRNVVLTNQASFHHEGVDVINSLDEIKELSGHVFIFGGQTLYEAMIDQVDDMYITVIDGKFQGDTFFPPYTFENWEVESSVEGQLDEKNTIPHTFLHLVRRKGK
Chain of Dihydrofolate reductase (Staphylococcus aureus, UniProt P0A017) (P0A017 whole entry): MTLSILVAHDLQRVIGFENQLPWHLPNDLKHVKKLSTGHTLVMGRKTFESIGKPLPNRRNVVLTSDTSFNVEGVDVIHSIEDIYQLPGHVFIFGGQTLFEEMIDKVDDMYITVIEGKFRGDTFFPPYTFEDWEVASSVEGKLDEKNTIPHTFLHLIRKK

Consider `CCc1nc(N)nc(N)c1C#CC(C)c1cc2c(c(-c3ccc(C(=O)O)cc3)c1)OCO2` (stereo unspecified) [UCP1191], for which the IC50 turned out to be 320 nM in test [1], 10 nM in test [2], 41 nM in test [3] and 87 nM in test [4].
As for `CCc1nc(N)nc(N)c1C#CCc1cc(OC)cc(-c2ccc(C(=O)O)cc2)c1` [UCP1175], the half-maximal inhibitory concentration (IC50) in test [1] stood at 980 nM; in test [3], 170 nM; in test [4], 1400 nM.
Regarding `CCc1nc(N)nc(N)c1C#C[C@H](C)c1cc(OC)cc(-c2ccc(C(=O)O)cc2)c1` [UCP1173], half-maximal inhibition in test [1] (IC50) required 270 nM.
In test [1], `CCc1nc(N)nc(N)c1C#C[C@@H](C)c1cc(-c2ccc(C(=O)O)cc2)ccc1OC` [UCP1164] had an IC50 of 8800 nM.
As for `CCc1nc(N)nc(N)c1C#C[C@@H](C)c1cc(OC)cc(-c2ccc(C(=O)O)cc2)c1` [UCP1172], the midpoint of inhibition in test [1], the IC50, lay at 410 nM.
Take `CCc1nc(N)nc(N)c1C#C[C@H](C)c1cc2c(c(-c3ccc(C(=O)O)cc3)c1)OCO2` [UCP1206]: the IC50 came to 180 nM in test [1], 17 nM in test [2], 54 nM in test [3] and 190 nM in test [4].
On to `CCc1nc(N)nc(N)c1C#CCc1cc(OC)c(OC)c(-c2ccncc2)c1` [UCP1039], for which the 50% inhibitory concentration (IC50) stood at 360 nM in test [1], 22 nM in test [3] and 450 nM in test [4].
Consider `CCc1nc(N)nc(N)c1C#C[C@@H](C)c1cc2c(c(-c3ccc(C(=O)O)cc3)c1)OCO2` [UCP1205], for which the IC50 in test [1] came to 340 nM; in test [2] it was 18 nM; in test [3], 100 nM; in test [4] it was 159 nM.

The term IC50 denotes the point on the concentration scale where inhibition reaches its midpoint.
